The results in this text go back to US9994546B2, “Cyclopropylamines as LSD1 inhibitors” (Incyte Corporation, priority 2014, dated 2018).

For orientation: IC50 means the concentration at which inhibition is half-maximal. Higher therefore signals lower potency.

The target of this assay is LSD-1 enzyme (Homo sapiens (Human), UniProt O60341). In words: LANCE LSD1/KDM1A demethylase assay (LSD1 histone demethylase biochemical assay). The settings on record: 1 nM LSD-1 enzyme, 1 hour preincubation at 25° C., 0.4 μM biotin-labeled Histone H3 peptide substrate. The protocol:
LANCE LSD1/KDM1A demethylase assay—10 μL of 1 nM LSD-1 enzyme (ENZO BML-SE544-0050) in the assay buffer (50 mM Tris, pH 7.5, 0.01% Tween-20, 25 mM NaCl, 5 mM DTT) were preincubated for 1 hour at 25° C. with 0.8 μL compound/DMSO dotted in black 384 well polystyrene plates. […] After stopping the reactions plates were incubated for 30 minutes and read on a PHERAstar FS plate reader (BMG Labtech).
For orientation: TR-FRET usually uses a lanthanide donor and a delayed reading to cut background.

In turn, `O=C(O)CC1(N2CCC(CN[C@@H]3C[C@H]3c3ccccc3)(Cc3ccc(F)cc3)CC2)CCC1` [Example 53, {1-[4-(4-fluorobenzyl)-4-({[(1R,2S)-2-phenylcyclopropyl]amino}methyl)piperidin-1-yl]cyclobutyl}acetic acid] returned a 50% inhibitory concentration (IC50) of at most 100 nM.
`COCC1(CN[C@@H]2C[C@H]2c2ccccc2)CCN(C2(CC(=O)O)CCC2)CC1` [Example 54, {1-[4-(methoxymethyl)-4-({[(1R,2S)-2-phenylcyclopropyl]amino}methyl)piperidin-1-yl]cyclobutyl}acetic acid]: the IC50 is at most 100 nM.
The compound `CC1(CN[C@@H]2C[C@H]2c2ccccc2)CCN(C2(CC(=O)O)CCC2)CC1` [Example 55, {1-[4-methyl-4-({[(1R,2S)-2-phenylcyclopropyl]amino}methyl)piperidin-1-yl]cyclobutyl}acetic acid] came in with a concentration for half-maximal inhibition (IC50) of at most 100 nM.
`CN(C)C(=O)CC1(N2CCC(C)(CN[C@@H]3C[C@H]3c3ccccc3)CC2)CCC1` [Example 56, N,N-dimethyl-2-{1-[4-methyl-4-({[(1R,2S)-2-phenylcyclopropyl]amino}methyl)piperidin-1-yl]cyclobutyl}acetamide] showed a concentration for half-maximal inhibition (IC50) of at most 100 nM.
To `CNC(=O)CC1(N2CCC(C)(CN[C@@H]3C[C@H]3c3ccccc3)CC2)CCC1` [Example 57, N-methyl-2-{1-[4-methyl-4-({[(1R,2S)-2-phenylcyclopropyl]amino}methyl)piperidin-1-yl]cyclobutyl}acetamide] belongs at most 100 nM; to `CS(=O)(=O)N1CC(CC#N)(N2CCC(N[C@@H]3C[C@H]3c3ccccc3)CC2)C1` [Example 58, [1-(methylsulfonyl)-3-(4-{[(1R,2S)-2-phenylcyclopropyl]amino}piperidin-1-yl)azetidin-3-yl]acetonitrile], at most 100 nM; to `CN1CC(CC#N)(N2CCC(N[C@@H]3C[C@H]3c3ccccc3)CC2)C1` [Example 59, [1-methyl-3-(4-{[(1R,2S)-2-phenylcyclopropyl]amino}piperidin-1-yl)azetidin-3-yl]acetonitrile], at most 100 nM.
`N#CCC1(N2CCC(N[C@@H]3C[C@H]3c3ccccc3)CC2)CNC1` [Example 60, [3-(4-{[(1R,2S)-2-phenylcyclopropyl]amino}piperidin-1-yl)azetidin-3-yl]acetonitrile] gave an IC50 of at most 100 nM.
To `N#CCC1(N2CCC(N[C@H]3C[C@@H]3c3ccccc3)CC2)CNC1` [Example 61, [3-(4-{[(1S,2R)-2-phenylcyclopropyl]amino}piperidin-1-yl)azetidin-3-yl]acetonitrile] belongs at most 100 nM.
`CCS(=O)(=O)N1CC(CC#N)(N2CCC(N[C@@H]3C[C@H]3c3ccccc3)CC2)C1` [Example 62, [1-(ethylsulfonyl)-3-(4-{[(1R,2S)-2-phenylcyclopropyl]amino}piperidin-1-yl)azetidin-3-yl]acetonitrile] registered an IC50 of at most 100 nM.
In the case of `CN(C)S(=O)(=O)N1CC(CC#N)(N2CCC(N[C@@H]3C[C@H]3c3ccccc3)CC2)C1` [Example 63, 3-(cyanomethyl)-N,N-dimethyl-3-(4-{[(1R,2S)-2-phenylcyclopropyl]amino}piperidin-1-yl)azetidine-1-sulfonamide], the IC50 was at most 100 nM.
The compound `CNS(=O)(=O)N1CC(CC#N)(N2CCC(N[C@@H]3C[C@H]3c3ccccc3)CC2)C1` [Example 64, 3-(cyanomethyl)-N-methyl-3-(4-{[(1R,2S)-2-phenylcyclopropyl]amino}piperidin-1-yl)azetidine-1-sulfonamide] yielded a concentration for half-maximal inhibition (IC50) of at most 100 nM.
`N#CCC1(N2CCC(N[C@@H]3C[C@H]3c3ccccc3)CC2)CN(S(N)(=O)=O)C1` [Example 65, 3-(cyanomethyl)-3-(4-{[(1R,2S)-2-phenylcyclopropyl]amino}piperidin-1-yl)azetidine-1-sulfonamide] gave a half-inhibitory concentration (IC50) of at most 100 nM.
To `CN1CC(CC(=O)O)(N2CCC(N[C@@H]3C[C@H]3c3ccccc3)CC2)C1` [Example 66, [1-methyl-3-(4-{[(1R,2S)-2-phenylcyclopropyl]amino}piperidin-1-yl)azetidin-3-yl]acetic acid] belongs at most 100 nM; to `CCN1CC(CC(=O)O)(N2CCC(N[C@@H]3C[C@H]3c3ccccc3)CC2)C1` [Example 67, [1-ethyl-3-(4-{[(1R,2S)-2-phenylcyclopropyl]amino}piperidin-1-yl)azetidin-3-yl]acetic acid], at most 100 nM; to `CN(C)C(=O)CC1(N2CCC(N[C@@H]3C[C@H]3c3ccccc3)CC2)CCC1` [Example 68, N,N-dimethyl-2-[1-(4-{[(1R,2S)-2-phenylcyclopropyl]amino}piperidin-1-yl)cyclobutyl]acetamide], at most 100 nM.
`CNC(=O)CC1(N2CCC(N[C@@H]3C[C@H]3c3ccccc3)CC2)CCC1` [Example 69, N-methyl-2-[1-(4-{[(1R,2S)-2-phenylcyclopropyl]amino}piperidin-1-yl)cyclobutyl]acetamide] had an IC50 of at most 100 nM.
Compound `CCS(=O)(=O)N1CC(CC(=O)N(C)C)(N2CCC(N[C@@H]3C[C@H]3c3ccccc3)CC2)C1` [Example 70, 2-[1-(ethylsulfonyl)-3-(4-{[(1R,2S)-2-phenylcyclopropyl]amino}piperidin-1-yl)azetidin-3-yl]-N,N-dimethylacetamide] registered a concentration for half-maximal inhibition (IC50) of at most 100 nM.
The result for `CCS(=O)(=O)N1CC(CC(=O)NC)(N2CCC(N[C@@H]3C[C@H]3c3ccccc3)CC2)C1` [Example 71, 2-[1-(ethylsulfonyl)-3-(4-{[(1R,2S)-2-phenylcyclopropyl]amino}piperidin-1-yl)azetidin-3-yl]-N-methylacetamide] reads at most 100 nM; that for `N#CCC1(N2CCC(N[C@@H]3C[C@H]3c3ccccc3)CC2)CN([C@H]2CC[C@H](O)CC2)C1` [Example 72, [1-(trans-4-hydroxycyclohexyl)-3-(4-{[(1R,2S)-2-phenylcyclopropyl]amino}piperidin-1-yl)azetidin-3-yl]acetonitrile], at most 100 nM; that for `N#CCC1(N2CCC(N[C@@H]3C[C@H]3c3ccccc3)CC2)CN([C@H]2CC[C@@H](O)CC2)C1` [Example 73, [1-(cis-4-hydroxycyclohexyl)-3-(4-{[(1R,2S)-2-phenylcyclopropyl]amino}piperidin-1-yl)azetidin-3-yl]acetonitrile], at most 100 nM.
To `N#CCC1(N2CCC(N[C@@H]3C[C@H]3c3ccccc3)CC2)CN(CCO)C1` [Example 74, [1-(2-hydroxyethyl)-3-(4-{[(1R,2S)-2-phenylcyclopropyl]amino}piperidin-1-yl)azetidin-3-yl]acetonitrile] belongs at most 100 nM; to `N#CCC1(N2CCC(N[C@@H]3C[C@H]3c3ccccc3)CC2)CN(C2CCOCC2)C1` [Example 75, [3-(4-{[(1R,2S)-2-phenylcyclopropyl]amino}piperidin-1-yl)-1-(tetrahydro-2H-pyran-4-yl)azetidin-3-yl]acetonitrile], at most 100 nM.
Turning to `N#CCC1(N2CCC(N[C@@H]3C[C@H]3c3ccccc3)CC2)CN(C2CCOC2)C1` (stereo partly drawn) [Example 76, [3-(4-{[(1R,2S)-2-phenylcyclopropyl]amino}piperidin-1-yl)-1-(tetrahydrofuran-3-yl)azetidin-3-yl]acetonitrile], the half-maximal inhibitory concentration (IC50) is at most 100 nM.
Take `CN(C)C(=O)CN1CC(CC#N)(N2CCC(N[C@@H]3C[C@H]3c3ccccc3)CC2)C1` [Example 77, 2-(3-(cyanomethyl)-3-(4-(((1R,2S)-2-phenylcyclopropyl)amino)piperidin-1-yl)azetidin-1-yl)-N,N-dimethylacetamide]: the concentration for half-maximal inhibition (IC50) was at most 100 nM.
Consider `CNC(=O)CN1CC(CC#N)(N2CCC(N[C@@H]3C[C@H]3c3ccccc3)CC2)C1` [Example 78, 2-[3-(cyanomethyl)-3-(4-{[(1R,2S)-2-phenylcyclopropyl]amino}piperidin-1-yl)azetidin-1-yl]-N-methylacetamide], for which the IC50 is at most 100 nM.
With `N#CCC1(N2CCC(N[C@@H]3C[C@H]3c3ccccc3)CC2)CN(CC(N)=O)C1` [Example 79, 2-[3-(cyanomethyl)-3-(4-{[(1R,2S)-2-phenylcyclopropyl]amino}piperidin-1-yl)azetidin-1-yl]acetamide], the IC50 was at most 100 nM.
Regarding `Cn1cc(C(=O)N2CC(CC#N)(N3CCC(N[C@@H]4C[C@H]4c4ccccc4)CC3)C2)cn1` [Example 80, [1-[(1-methyl-1H-pyrazol-4-yl)carbonyl]-3-(4-{[(1R,2S)-2-phenylcyclopropyl]amino}piperidin-1-yl)azetidin-3-yl]acetonitrile], the IC50 is at most 100 nM.
The compound `Cn1nccc1C(=O)N1CC(CC#N)(N2CCC(N[C@@H]3C[C@H]3c3ccccc3)CC2)C1` [Example 81, [1-[(1-methyl-1H-pyrazol-5-yl)carbonyl]-3-(4-{[(1R,2S)-2-phenylcyclopropyl]amino}piperidin-1-yl)azetidin-3-yl]acetonitrile] yielded an IC50 of at most 100 nM.
The compound `N#CCC1(N2CCC(N[C@@H]3C[C@H]3c3ccccc3)CC2)CN(C(=O)[C@H]2CC[C@H](O)CC2)C1` [Example 82, [1-[(trans-4-hydroxycyclohexyl)carbonyl]-3-(4-{[(1R,2S)-2-phenylcyclopropyl]amino}piperidin-1-yl)azetidin-3-yl]acetonitrile] gave a 50% inhibitory concentration (IC50) of at most 100 nM.
Take `N#CCC1(N2CCC(N[C@@H]3C[C@H]3c3ccccc3)CC2)CN(C(=O)[C@H]2CC[C@@H](O)CC2)C1` [Example 83, [1-[(cis-4-hydroxycyclohexyl)carbonyl]-3-(4-{[(1R,2S)-2-phenylcyclopropyl]amino}piperidin-1-yl)azetidin-3-yl]acetonitrile]: the half-maximal inhibitory concentration (IC50) is at most 100 nM.
Compound `N#CCC1(N2CCC(N[C@@H]3C[C@H]3c3ccccc3)CC2)CN(C(=O)C2(O)CC2)C1` [Example 84, [1-[(1-hydroxycyclopropyl)carbonyl]-3-(4-{[(1R,2S)-2-phenylcyclopropyl]amino}piperidin-1-yl)azetidin-3-yl]acetonitrile] returned an IC50 of at most 100 nM.
